According to PubChem BioAssay (NCI):
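Following 48 hours of exposure in 96-well plates, responses at five concentrations were used to interpolate endpoints linearly. GI50 is the concentration that inhibits growth by half. The concentration for full growth arrest is given as TGI.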

Columns and labels:
Experiment in all cases: NCI anticancer screen, dose series, 48 h
[1] = system: MCF7 breast
[2] = system: OVCAR-4 ovarian
[3] = system: IGROV1 ovarian
[4] = system: OVCAR-8 ovarian
[5] = system: NCI-H23 lung
[6] = system: SF-295 CNS
[7] = system: TK-10 renal
[8] = system: HL-60(TB) leukemia
[9] = system: DU-145 prostate
[10] = system: HT29 colon
[11] = system: HCT-15 colon
[12] = system: SK-MEL-5 melanoma
[13] = system: HOP-62 NSCLC
[14] = system: BT-549 breast
[15] = system: NCI-H226 lung
[16] = system: NCI-H460 lung
[17] = system: U251 CNS
[18] = system: HOP-92 NSCLC
[19] = system: MALME-3M melanoma
[20] = system: ACHN renal
[21] = system: UACC-62 melanoma
[22] = system: MDA-MB-231 breast
[23] = system: SK-MEL-2 melanoma
[24] = system: NCI-H522 lung
[25] = system: A498 renal
[26] = system: SF-539 CNS
[27] = system: SK-MEL-28 melanoma
[28] = system: OVCAR-3 ovarian
[29] = system: NCI/ADR-RES ovarian
[30] = system: MDA-MB-435
[31] = system: RXF 393 renal
[32] = system: SN12C renal
[33] = system: HCC-2998 colon
[34] = system: CAKI-1 renal
[35] = system: T-47D breast
[36] = system: SF-268 CNS
[37] = system: OVCAR-5 ovarian
[38] = system: SNB-19 CNS
[39] = system: SK-OV-3 ovarian
[40] = system: SW-620 colon
[41] = system: SR leukemia
[42] = system: HS 578T breast
[43] = system: LOX IMVI melanoma
[44] = system: UACC-257 melanoma
[45] = system: CCRF-CEM leukemia
[46] = system: M14 melanoma
[47] = system: HCT-116 colon
[48] = system: A549 NSCLC
[49] = system: KM12 colon
[50] = system: RPMI-8226 leukemia
[51] = system: SNB-75 CNS
[52] = system: K-562 leukemia
[53] = system: MOLT-4 leukemia
[54] = system: COLO 205 colon
[55] = system: 786-0 renal
[56] = system: UO-31 renal

In the case of `FC(F)(F)c1ccc(-c2cnc(Cl)nc2NCc2cc(C(F)(F)F)cc(C(F)(F)F)c2)cc1`, the GI50 [1] is reported as 2650 nM, the TGI [1] is reported as over 100 µM and the GI50 [2] is reported as 2940 nM. For the same compound, the TGI [2] was over 100 µM, the GI50 [3] was 7.87 µM and the TGI [3] was over 100 µM. It also gave a GI50 [4] of 3.48 µM, a TGI [4] of over 100 µM and a GI50 [5] of 3.28 µM. For the same compound, the TGI [5] was over 100 µM, the GI50 [6] was 2660 nM and the TGI [6] was over 100 µM. The GI50 [7] was 3.16 µM, the TGI [7] was over 100 µM and the GI50 [8] was 2600 nM. The TGI [8] was 6.73 µM, the GI50 [9] was 3.92 µM and the TGI [9] was over 100 µM. The GI50 [10] was 3.26 µM, the TGI [10] was over 100 µM and the GI50 [11] was 3.48 µM. For the same compound, the TGI [11] was over 100 µM, the GI50 [12] was 5.19 µM and the TGI [12] was over 100 µM. For the same compound, the GI50 [13] was 3.86 µM, the TGI [13] was over 100 µM and the GI50 [14] was 5.59 µM. The TGI [14] was over 100 µM, the GI50 [15] was 2610 nM and the TGI [15] was over 100 µM. The GI50 [16] was 3.16 µM, the TGI [16] was over 100 µM and the GI50 [17] was 2810 nM. For the same compound, the TGI [17] was over 100 µM, the GI50 [18] was 1370 nM and the TGI [18] was 4.3 µM. It also gave a GI50 [19] of 2840 nM, a TGI [19] of 7.56 µM and a GI50 [20] of 3.28 µM. The TGI [20] was over 100 µM, the GI50 [21] was 3.34 µM and the TGI [21] was over 100 µM. The GI50 [22] was 2190 nM, the TGI [22] was 6.4 µM and the GI50 [23] was 2350 nM. The TGI [23] was 5.28 µM, the GI50 [24] was 2690 nM and the TGI [24] was 9.86 µM. The GI50 [25] was 1970 nM, the TGI [25] was 6.87 µM and the GI50 [26] was 3.78 µM. For the same compound, the TGI [26] was over 100 µM, the GI50 [27] was 3.93 µM and the TGI [27] was over 100 µM. The GI50 [28] was 2790 nM, the TGI [28] was 9.25 µM and the GI50 [29] was 2980 nM. For the same compound, the TGI [29] was over 100 µM, the GI50 [30] was 2960 nM and the TGI [30] was over 100 µM. For the same compound, the GI50 [31] was 3.15 µM, the TGI [31] was over 100 µM and the GI50 [32] was 2810 nM. The TGI [32] was over 100 µM, the GI50 [33] was 3.82 µM and the TGI [33] was over 100 µM. For the same compound, the GI50 [34] was 2100 nM, the TGI [34] was 7.52 µM and the GI50 [35] was 3.14 µM. For the same compound, the TGI [35] was over 100 µM, the GI50 [36] was 3.86 µM and the TGI [36] was over 100 µM. The GI50 [37] was 4.52 µM, the TGI [37] was over 100 µM and the GI50 [38] was 2440 nM. The TGI [38] was over 100 µM, the GI50 [39] was 3.4 µM and the TGI [39] was over 100 µM. It also gave a GI50 [40] of 3.14 µM, a TGI [40] of over 100 µM and a GI50 [41] of 3.67 µM. The TGI [41] was over 100 µM, the GI50 [42] was 3.03 µM and the TGI [42] was over 100 µM. For the same compound, the GI50 [43] was 2740 nM, the TGI [43] was over 100 µM and the GI50 [44] was 2180 nM. The TGI [44] was 7.28 µM, the GI50 [45] was 3.82 µM and the TGI [45] was over 100 µM. It also gave a GI50 [46] of 4.44 µM, a TGI [46] of over 100 µM and a GI50 [47] of 3.32 µM. It also gave a TGI [47] of over 100 µM, a GI50 [48] of 2810 nM and a TGI [48] of over 100 µM. It also gave a GI50 [49] of 3.06 µM, a TGI [49] of over 100 µM and a GI50 [50] of 3.08 µM. The TGI [50] was over 100 µM, the GI50 [51] was 1700 nM and the TGI [51] was over 100 µM. The GI50 [52] was 3.77 µM, the TGI [52] was over 100 µM and the GI50 [53] was 3.94 µM. For the same compound, the TGI [53] was over 100 µM, the GI50 [54] was 1880 nM and the TGI [54] was 3.43 µM. For the same compound, the GI50 [55] was 3.67 µM, the TGI [55] was over 100 µM and the GI50 [56] was 2510 nM. The TGI [56] was over 100 µM.
